{
  "source": "paper PMC6226504",
  "about": "“Ca^2+ efflux via plasma membrane Ca^2+-ATPase mediates chemotaxis in ascidian sperm” (Scientific Reports, 2018)",
  "molecular_target": "T1, plasma membrane Ca2+-ATPase (PMCA), Atp2b-var.b-mut3 (Ciona intestinalis, UniProt A0A3G9HPC9, R951A/H956A/H962A)",
  "T1 construct": "Atp2b-var.b-mut3, recombinant, in Sf9 cell membrane fraction",
  "T1 sequence (A0A3G9HPC9 1-1165 R951A/H956A/H962A)": "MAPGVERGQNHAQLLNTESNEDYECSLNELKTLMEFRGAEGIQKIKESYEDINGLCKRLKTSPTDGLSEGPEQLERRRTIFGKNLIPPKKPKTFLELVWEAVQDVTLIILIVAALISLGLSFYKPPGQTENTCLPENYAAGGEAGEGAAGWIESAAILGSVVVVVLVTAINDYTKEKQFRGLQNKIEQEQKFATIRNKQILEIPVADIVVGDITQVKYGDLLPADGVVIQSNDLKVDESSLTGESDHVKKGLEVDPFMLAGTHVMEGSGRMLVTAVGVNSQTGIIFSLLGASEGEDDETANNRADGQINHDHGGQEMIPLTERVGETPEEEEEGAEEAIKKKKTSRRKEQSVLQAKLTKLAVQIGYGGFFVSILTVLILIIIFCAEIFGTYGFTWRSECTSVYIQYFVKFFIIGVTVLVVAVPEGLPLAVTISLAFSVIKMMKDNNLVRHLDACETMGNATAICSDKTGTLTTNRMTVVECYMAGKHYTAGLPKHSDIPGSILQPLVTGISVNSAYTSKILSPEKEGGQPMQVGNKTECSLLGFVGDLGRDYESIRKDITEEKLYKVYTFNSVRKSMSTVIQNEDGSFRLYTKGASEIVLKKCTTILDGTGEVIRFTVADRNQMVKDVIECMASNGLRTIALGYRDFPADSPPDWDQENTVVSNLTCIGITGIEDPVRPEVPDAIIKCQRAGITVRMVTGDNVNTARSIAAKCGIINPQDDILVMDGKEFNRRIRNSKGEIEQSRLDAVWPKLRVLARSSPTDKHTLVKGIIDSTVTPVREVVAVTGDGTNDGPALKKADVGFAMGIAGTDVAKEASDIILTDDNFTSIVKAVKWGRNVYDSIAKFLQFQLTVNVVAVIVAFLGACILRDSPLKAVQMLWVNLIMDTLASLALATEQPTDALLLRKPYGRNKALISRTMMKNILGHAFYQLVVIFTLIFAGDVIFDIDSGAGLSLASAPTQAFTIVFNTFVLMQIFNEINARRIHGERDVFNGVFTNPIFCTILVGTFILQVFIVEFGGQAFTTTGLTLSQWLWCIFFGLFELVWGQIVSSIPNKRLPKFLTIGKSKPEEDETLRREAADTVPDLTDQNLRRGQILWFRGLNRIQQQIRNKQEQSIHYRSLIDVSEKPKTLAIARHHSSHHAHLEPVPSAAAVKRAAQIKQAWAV",
  "test": "quartz crystal microbalance (QCM), mutant compared with wild-type membranes",
  "assay_type": "binding",
  "data": [
    {"smiles": "C[C@@H](CCC[C@@H](C)[C@H]1CC[C@H]2[C@@H]3[C@H](O)C[C@H]4[C@@H](O)[C@H](OS(=O)(=O)O)CC[C@]4(C)[C@H]3CC[C@]12C)COS(=O)(=O)O", "note": "[SAAF]", "values": [
      {"measurement": "quartz crystal microbalance (QCM), mutant compared with wild-type membranes", "result": "Atp2b-var.b-mut3 showed the same interaction compared to the wild-type"}
    ]}
  ]
}
